# Results taken from patent US20240050465A1, “HYDROGEN WATER FOR PREVENTION OF ALCOHOLIC HEPATOPATHY” (NIHON TRIM CO., LTD., priority 2021, published 2024).
# Read-outs that look alike come from different tables or passages of the source.
# System: HepG2 cells
# Settings: 24 hours; for Cell viability: vs 0% ethanol
# Description: A HepG2 cell line, which is human liver cancer-derived cells, was obtained from Riken Bioresource Research Center (RIKEN BRC) and cultured in DMEM containing 10% fetal bovine serum (FBS) (Sigma-Aldrich, F7524) and 1% penicillin-streptomycin (manufactured by FUJIFILM Wako Pure Chemical Corporation, trade name: 168-23191) under conditions of 37° C. and 5% CO2.
smiles,measurement,setting,value
"CCO [Ethanol, ethanol]",Viable cell count,"HepG2, ethanol 0.25%",9.48 × 10^4 cells/well
same,Cell viability,"HepG2, ethanol 0.25%",96.7%
same,Viable cell count,"HepG2, ethanol 0.5%",9.37 × 10^4 cells/well
same,Cell viability,"HepG2, ethanol 0.5%",95.6%
same,Viable cell count,"HepG2, ethanol 1%",8.22 × 10^4 cells/well
same,Cell viability,"HepG2, ethanol 1%",83.8%
same,Viable cell count,"HepG2, ethanol 2%",6.05 × 10^4 cells/well
same,Cell viability,"HepG2, ethanol 2%",61.7%
same,Viable cell count,"HepG2, ethanol 4%",4.87 × 10^4 cells/well
same,Cell viability,"HepG2, ethanol 4%",49.7%
same,Viable cell count,"HepG2, ethanol 8%",0.35 × 10^4 cells/well
same,Cell viability,"HepG2, ethanol 8%",3.6%
